# Legend:
# [1] = tested on: T.b. brucei, T.b. gambiense and T.b. rhodesiense; experiment: Isolated bloodstream trypomastigote (TRY) in-vitro screen; assay type: cell-based
# Protocol: (§1) Primary screening for new trypanocides has made extensive use of rodent systems, in which host survival time is a simple indicator of drug activity. In-vitro screens have used a variety of trypomastigote types (see Table 3, below). […] Most early in-vitro screens employed a short test in which bloodstream trypomastigotes were isolated from an infected rodent and maintained for up to 24 h in a simple drug-containing media. Two significant modifications of this technique include maintaining isolated bloodstream trypomastigotes in drug-containing media for 3-4 hours at 37° C in micro-titre plates and their subsequent viability assessed by the uptake of radiolabelled precursors or motility and infectivity to mice.
# In-vitro studies on isolated bloodstream trypomastigotes were also used in the rational biochemical approaches towards the chemotherapy of T. brucei infections involving inhibitors of carbohydrate catabolism salicyl hydroxamic acid plus glycerol), of polyamine synthesis (methylgyoxal bis-guanylhydrazone and - DFMO), and of surface coat glycoprotein synthesis (Tunicamycin). In these studies, activity of the compounds are shown in-vitro and in-vivo, whereas the sensitivity of isolated bloodstream trypomastigotes to toxic oxygen radicals generated by naphthoquinones was not shown by the parasites in mice. The activity of the standard anti-trypanosomals-melarsoprol, pentamidine and suramin and tested compounds according to the present invention in in-vitro systems is shown in Table 3.
# (§2) In-vitro and in-vivo models were used to test activities of a selection of many compounds. Those activities are summarized in Tables 1-3, showing variation between systems and species. Activities measured in the MP mo and HM mo models have shown the best correlation with results obtained in hamster and mouse models.
# L major/L mexicana [2] = experiment: Leishmania mouse/hamster models, in-vivo; details: Lm. Further: key: - no/poor activity,; + fair/moderate activity,; ++ good/excellent activity.
# From the text: as §2
# L donovani [3] = experiment: Leishmania mouse/hamster models, in-vivo; details: Ld. Further: key: - no/poor activity,; + fair/moderate activity,; ++ good/excellent activity.
# From the text: as §2
# [4] = tested on: T.b. brucei, T.b. gambiense and T.b. rhodesiense; experiment: African trypanosomiasis mouse model, in-vivo
# Protocol: as §1, §2
# L major/L mexicana [5] = experiment: Leishmania promastigote (PRO) in-vitro screen; assay type: cell-based; details: Lm.
# From the text: (§3) Following initial infection, the amastigote is the only form present in the mammalian host, surviving and dividing in various macrophage populations. Differences between the promastigote and amastigote in form and habitat are not matched by known biochemical dissimilarities. However, the drug susceptibility of the cultured promastigote, used in many early chemotherapy screens, contrasts markedly with that of the amastigote (see Table 1, below), most importantly to the clinically used pentavalent antimonials - sodium stibogluconate (Pentostam) and meglumine antimoniate (Glucantime).
# (§4) Amastigotes of Leishmania can be cultivated in a wide range of mammalian cells, some of which may be used in in-vitro screens. These include (1) a Sticker dog sarcoma (fibroblast) cell line, (2) transformed rodent macrophage cell lines, (3) primary isolated mouse peritoneal macrophages (MP mo), and (4) human monocyte-derived macrophages (HM mo). The methods are similar for all models. Amastigote or promastigote infected cells are maintained in a medium containing the drug for 4-7 days, at 37 C for L. donovani and 33-35 C for L. major and L. mexicana. Drug activity is then assessed by counting (I) the number of infected host cells and/or (II) the number of amastigotes/100 host cells.
# as §2
# L donovani [6] = experiment: Leishmania promastigote (PRO) in-vitro screen; assay type: cell-based; details: Ld.
# From the text: as §3, §4, §2
# L major/L mexicana [7] = experiment: Amastigotes (AM) in mouse or human macrophages (mos), in-vitro; assay type: cell-based; details: Lm., Amastigote
# From the text: as §4, §2
# L donovani [8] = experiment: as above; assay type: cell-based; details: Ld., Amastigote
# From the text: as §4, §2
# L major/L mexicana [9] = experiment: Amastigote-promastigote (AM-PRO) transformation, in-vitro; assay type: cell-based; details: Lm.
# [10] = tested on: T.b. brucei, T.b. gambiense and T.b. rhodesiense; experiment: Cultivated bloodstream trypomastigote (TRY) in-vitro screen; assay type: cell-based
# From the text: Culture systems developed in the last decade have used mammalian cell feeder layers to support the growth of dividing populations of bloodstream trypomastigotes of T. brucei spp. Some of these systems have been used in chemotherapy studies, including; (1) bovine fibroblast culture - T. brucei models to test some standard and experimental compounds, (2) murine bone marrow culture - T.b. gambiense model to screen inosine analogues and platinum and hypolipidemic compounds, and (3) Microtus embryonic fibroblast culture (MEF) - T.b. rhodesiense model to test standard and experimental drugs. These systems give a good indication of in-vivo activity (see Table 3). They measure activity against dividing cells rather than specific macromolecular synthesis pathways and can be readily established in micro-titre plates. The MEF and bone marrow cell feeder layers can be used to grow a range of strains of T. brucei spp., offering the possibility of examining variations in drug susceptibility and resistance between strains. The presence of a feeder layer, however, limits the opportunities for the automation of these systems.
# as §2
# L donovani [11] = experiment: Amastigote-promastigote (AM-PRO) transformation, in-vitro; assay type: cell-based; details: Ld.
# L major/L mexicana [12] = experiment: Amastigotes (AM) in cell lines, in-vitro; assay type: cell-based; details: Lm., Amastigote; further: key: - no/poor activity,; + fair/moderate activity,; ++ good/excellent activity
# From the text: as §4, §2
# L donovani [13] = experiment: Amastigotes (AM) in cell lines, in-vitro; assay type: cell-based; details: Ld., Amastigote; further: key: - no/poor activity,; + fair/moderate activity,; ++ good/excellent activity
# From the text: as §4, §2
# B lymphocytes = experiment: Lymphocyte blastogenesis assay, B lymphocytes (PWM); assay type: cell-based, human
# Protocol: (§5) T and B lymphocytes from normal human donors were incubated for 30 minutes at various dose levels of the compounds indicated. The lymphocytes were added in triplicate wells in gentamicin and phytohemagglutinin (PHA) (a T cell mitogen), pokeweed mitogen (PWM) (a B cell mitogen) and allogeneic mononuclear cells (mixed leukocyte cultures; MLC) or media containing the above additives. The lymphocyte blastogenesis assay is described in detail below.
# (§6) The data are represented as the mean of the three replicates. The results are presented in Charts la(e) (i) and la(e) (ii) (Figs. 1 and 2). […] A reduction of both T lymphocytes' abilities to proliferate was obtained when 100 u.M or greater concentrations of IPA was added to the cell cultures. Proliferative activity of T lymphocytes by 25% at the 30 u.M concentration of IPA in the experiment.
# (§7) • 1. Mononuclear cells are separated from whole blood by differential centrifugation using a synthetic separation medium, or are thawed from a cryopreserved preparation. The cells are washed and resuspended in media (RPMI - 1640, L-Glutamine 2mM, Herpes Buffer 25mM, Gentamicin 50 ug/ml, Human AB Serum-heat inactivated (56°, 30°) 20%). • 2. A viable cell count is determined. • 3. Cell concentration is adjusted to 2 x 10^6 /ml in media. • 4. The cell suspension is added to wells of a 96-well flat bottom plate in 0.1 ml aliquots (2 x 10^5 cells). • 5. The selected mitogens and/or antigens (in media without serum) are added to the cells in the wells also in 0.1 ml aliquots. • 6. The cultures are incubated for 3-7 days (depending upon the mitogen or antigen) at 37° C in a humidified 5% C02 atmosphere. • 7. Six to eight hours before termination of cultures 0.05 ml (1 µCi) of ^3HTdR sp. act 6.7 Ci/mM (20 µCi/ml stock) is added to each well. • 8. At termination of cultures the cells are harvested onto strips of scintillation-grade fibreglass paper using a multiple sample harvester. • 9. Perforated disks from the fibreglass paper of the harvested cultures are placed each into scintillation vials to which is then added 5 ml of toluene based scintillation cocktail. • 10. The vials are counted in a liquid scintillation counter for one minute where the amount of incorporated ^3HTdR is determined.
# (§8) net CPM = xCPM of mitogen/antigen cultures - xCPM of media cultures.
# T lymphocytes = experiment: Lymphocyte blastogenesis assay, T lymphocytes (PHA); assay type: cell-based, human; details: 100 - 1 µM (Figs. 11 and 12)
# Protocol: as §5, §6, §7, §8
# HIV-I = experiment: Experiment la(a): macrophage cells, HIV-I, p24 antigen capture radio-immunoassay; assay type: cell-based; details: for TITER: control titer 100000; for wells positive for HIV-I p24, LOG VIRUS DILUTION -1 / wells positive for HIV-I p24, LOG VIRUS DILUTION -2 / wells positive for HIV-I p24, LOG VIRUS DILUTION -3 / wells positive for HIV-I p24, LOG VIRUS DILUTION -4 / wells positive for HIV-I p24, LOG VIRUS DILUTION -5 / wells positive for HIV-I p24, LOG VIRUS DILUTION -6: duplicate runs
# Protocol: Fresh macrophage cultures were obtained by incubation of mononuclear cells obtained from a leukopak directly in the wells of a microtiter plate having 6 wells per row. After removal of non-adherent cells, each row of the adherent macrophages was infected with 10-fold serial dilutions of HIV-I, with the use of polybrene to enhance uptake of the virus. After one to two hours, the virus inoculum was removed and replaced with fresh normal growth medium. The fresh medium for each row contained a particular concentration of AZT, dideoxy cytidine (ddC), or compound la, as indicated by the left-hand column of Table la(a). The first row of wells acted as a control, and to it was added fresh medium containing none of the three drugs. Medium levels were maintained for two to four weeks to allow replication of the virus to take place, with at least one complete fluid change to remove residual virus inoculum. The contents of each well were then tested for the level of HIV p24 antigen present using a commercially available antigen capture kit employing a radio-immunoassay which can detect as little as 10'^9gm of p24 present in a sample. The above procedure was done in duplicate runs.
# The results were interpreted as follows: 2/2, for example, means that both the corresponding wells of both runs were positive for HIV-I p24, while 0/2 means that neither well was positive. The titers are given in the next to last column; where 1/2 wells was positive, an intermediate value was given to the titer that is half way between the two dilutions when calculated on a logarithmic scale. 3 µM IPA was positive in both wells at a dilution of 1/10,000 and in neither well at 1/100,000. Thus, one half log interval between 10^4 and 10^5 is 10^4.5, or 30,000.
smiles,measurement,setting,value
"N=C(N)c1ccc(OCCCCCOc2ccc(C(=N)N)cc2)cc1 [Pentamidine, pentamidine, reference compound]","activity, isolated bloodstream TRY",[1],+ +
same,"Activity, mouse/ hamster models",L major/L mexicana [2],-
same,"Activity, mouse/ hamster models",L donovani [3],+
same,"activity, mouse model",[4],+ +
same,"Activity, PRO",L major/L mexicana [5],+ +
same,"Activity, PRO",L donovani [6],+ +
same,"Activity, AM in mouse or human mos",L major/L mexicana [7],+ +
same,"Activity, AM in mouse or human mos",L donovani [8],+
same,"Activity, AM-PRO transform-ation",L major/L mexicana [9],+ +
same,"activity, cultivated bloodstream TRY",[10],+ +
same,"Activity, AM-PRO transform-ation",L donovani [11],+ +
same,"Activity, AM in cell lines",L major/L mexicana [12],+
same,"Activity, AM in cell lines",L donovani [13],-
"Nc1nc(N)nc(Nc2ccc([As]3SCC(CO)S3)cc2)n1 (centres unmarked) [Melarsoprol, melarsoprol, reference compound]","activity, isolated bloodstream TRY",[1],+ +
same,"activity, mouse model",[4],+ +
same,"activity, cultivated bloodstream TRY",[10],+ +
"Nc1ccn([C@H]2CC[C@@H](CO)O2)c(=O)n1 [ddC, dideoxycytidine, reference compound]",reduction in B lymphocyte proliferative responses,B lymphocytes; 1 µM,20 -35%
same,reduction in B lymphocyte proliferative responses,B lymphocytes; 1000 u.M,80 to 85%
same,reduction in T lymphocyte function,T lymphocytes,10 - 25%
same,activity at 10 µM,"HIV-I; Human immunodeficiency virus 1, Macrophage, drug 10 μM, titer relative to control, read-out: PERCENT OF CONTROL",10%
same,activity at 100 µM,"HIV-I; Human immunodeficiency virus 1, Macrophage, drug 100 μM, titer relative to control, read-out: PERCENT OF CONTROL",3%
same,TITER,HIV-I; drug 10 μM,10000
same,"wells positive for HIV-I p24, LOG VIRUS DILUTION -1",HIV-I; drug 10 μM,2/2
same,"wells positive for HIV-I p24, LOG VIRUS DILUTION -2",HIV-I; drug 10 μM,2/2
same,"wells positive for HIV-I p24, LOG VIRUS DILUTION -3",HIV-I; drug 10 μM,2/2
same,"wells positive for HIV-I p24, LOG VIRUS DILUTION -4",HIV-I; drug 10 μM,1/2
same,"wells positive for HIV-I p24, LOG VIRUS DILUTION -5",HIV-I; drug 10 μM,0/2
same,"wells positive for HIV-I p24, LOG VIRUS DILUTION -6",HIV-I; drug 10 μM,0/2
same,TITER,HIV-I; drug 100 μM,3000
same,"wells positive for HIV-I p24, LOG VIRUS DILUTION -1",HIV-I; drug 100 μM,2/2
same,"wells positive for HIV-I p24, LOG VIRUS DILUTION -2",HIV-I; drug 100 μM,2/2
same,"wells positive for HIV-I p24, LOG VIRUS DILUTION -3",HIV-I; drug 100 μM,2/2
same,"wells positive for HIV-I p24, LOG VIRUS DILUTION -4",HIV-I; drug 100 μM,0/2
same,"wells positive for HIV-I p24, LOG VIRUS DILUTION -5",HIV-I; drug 100 μM,0/2
same,"wells positive for HIV-I p24, LOG VIRUS DILUTION -6",HIV-I; drug 100 μM,0/2
